In PubChem BioAssay AID2060492 (Molecular Pharmacology Branch, DTP, NCI, 2025):
pIC50: −log10 of the molar value.

System: 695427-040-R-J1-PDC complex spheroids, viability percent T/C
Assay: Anticancer human tumor 695427-040-R-J1-PDC patient-derived colon adenocarcinoma cell line growth inhibition [GQUAD]
Conditions: for pIC50: curve of first compound; for viability, T/C: stronger effect = lower value
How it was run: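 Viability of tumor cells grown as complex spheroids with endothelial and stromal cells, exposed to drug combinations. Top concentration at or near clinical Cmax (else 10 microM), diluted in half-log increments.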

[1] = second compound 0.0316 µM, first compound 0.0316 µM
[2] = second compound 0.0316 µM, first compound 0.1 µM
[3] = second compound 0.0316 µM, first compound 0.316 µM
[4] = second compound 0.0316 µM, first compound 1 µM
[5] = second compound 0.0316 µM, first compound 3.16 µM
[6] = second compound 0.0316 µM, first compound 10 µM
[7] = second compound 0.1 µM, first compound 0.0316 µM
[8] = second compound 0.1 µM, first compound 0.1 µM
[9] = second compound 0.1 µM, first compound 0.316 µM
[10] = second compound 0.1 µM, first compound 1 µM
[11] = second compound 0.1 µM, first compound 3.16 µM
[12] = second compound 0.1 µM, first compound 10 µM
[13] = second compound 0.316 µM, first compound 0.0316 µM
[14] = second compound 0.316 µM, first compound 0.1 µM
[15] = second compound 0.316 µM, first compound 0.316 µM
[16] = second compound 0.316 µM, first compound 1 µM
[17] = second compound 0.316 µM, first compound 3.16 µM
[18] = second compound 0.316 µM, first compound 10 µM
[19] = second compound 1 µM, first compound 0.0316 µM
[20] = second compound 1 µM, first compound 0.1 µM
[21] = second compound 1 µM, first compound 0.316 µM
[22] = second compound 1 µM, first compound 1 µM
[23] = second compound 1 µM, first compound 3.16 µM
[24] = second compound 1 µM, first compound 10 µM
[25] = second compound 3.16 µM, first compound 0.0316 µM
[26] = second compound 3.16 µM, first compound 0.1 µM
[27] = second compound 3.16 µM, first compound 0.316 µM
[28] = second compound 3.16 µM, first compound 1 µM
[29] = second compound 3.16 µM, first compound 3.16 µM
[30] = second compound 3.16 µM, first compound 10 µM
[31] = second compound 10 µM, first compound 0.0316 µM
[32] = second compound 10 µM, first compound 0.1 µM
[33] = second compound 10 µM, first compound 0.316 µM
[34] = second compound 10 µM, first compound 1 µM
[35] = second compound 10 µM, first compound 3.16 µM
[36] = second compound 10 µM, first compound 10 µM
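Also: spheroids exposed to compounds for seven days before readout.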

C=CC(=O)N1CCN(c2nc(=O)n(-c3c(C)ccnc3C(C)C)c3nc(-c4c(O)cccc4F)c(F)cc23)C(C)C1 (stereo unspecified) + Cc1[nH]c2ccc(F)cc2c1-c1nc2c3cccnc3c3ncccc3c2[nH]1
pIC50 (second compound 0.0316 µM): < 5.00 | pIC50 (second compound 0.1 µM): < 5.00 | pIC50 (second compound 0.316 µM): < 5.00 | pIC50 (second compound 1 µM): < 5.00 | pIC50 (second compound 3.16 µM): < 5.00 | pIC50 (second compound 10 µM): < 5.00 | viability, T/C [1]: 108% | viability, T/C [2]: 86% | viability, T/C [3]: 107% | viability, T/C [4]: 83% | viability, T/C [5]: 93.2% | viability, T/C [6]: 90.2% | viability, T/C [7]: 101% | viability, T/C [8]: 87.6% | viability, T/C [9]: 99.9% | viability, T/C [10]: 67.8% | viability, T/C [11]: 104% | viability, T/C [12]: 106% | viability, T/C [13]: 102% | viability, T/C [14]: 95.7% | viability, T/C [15]: 84.2% | viability, T/C [16]: 94.8% | viability, T/C [17]: 86.9% | viability, T/C [18]: 92.8% | viability, T/C [19]: 80.5% | viability, T/C [20]: 90% | viability, T/C [21]: 79.6% | viability, T/C [22]: 101% | viability, T/C [23]: 104% | viability, T/C [24]: 76.8% | viability, T/C [25]: 69% | viability, T/C [26]: 77.1% | viability, T/C [27]: 81.5% | viability, T/C [28]: 86.5% | viability, T/C [29]: 90.3% | viability, T/C [30]: 86.8% | viability, T/C [31]: 73.6% | viability, T/C [32]: 81.2% | viability, T/C [33]: 86.2% | viability, T/C [34]: 82.7% | viability, T/C [35]: 81.8% | viability, T/C [36]: 69.1%

CC(C)n1c(=O)n(C)c2cnc3cc(F)c(-c4ccc(OCCCN5CCCCC5)nc4)cc3c21 + Cc1[nH]c2ccc(F)cc2c1-c1nc2c3cccnc3c3ncccc3c2[nH]1
pIC50 (second compound 0.0316 µM): < 5.00 | pIC50 (second compound 0.1 µM): < 5.00 | pIC50 (second compound 0.316 µM): < 5.00 | pIC50 (second compound 1 µM): 5.01 | pIC50 (second compound 3.16 µM): < 5.00 | pIC50 (second compound 10 µM): 5.14 | viability, T/C [1]: 116% | viability, T/C [2]: 92.2% | viability, T/C [3]: 116% | viability, T/C [4]: 74.3% | viability, T/C [5]: 93.5% | viability, T/C [6]: 65.4% | viability, T/C [7]: 101% | viability, T/C [8]: 97.2% | viability, T/C [9]: 128% | viability, T/C [10]: 91.7% | viability, T/C [11]: 94.3% | viability, T/C [12]: 58.8% | viability, T/C [13]: 102% | viability, T/C [14]: 120% | viability, T/C [15]: 96.4% | viability, T/C [16]: 98.7% | viability, T/C [17]: 99.2% | viability, T/C [18]: 61.3% | viability, T/C [19]: 84.2% | viability, T/C [20]: 106% | viability, T/C [21]: 111% | viability, T/C [22]: 109% | viability, T/C [23]: 106% | viability, T/C [24]: 49.1% | viability, T/C [25]: 86.8% | viability, T/C [26]: 85% | viability, T/C [27]: 94.8% | viability, T/C [28]: 96.2% | viability, T/C [29]: 92.2% | viability, T/C [30]: 50.3% | viability, T/C [31]: 61.7% | viability, T/C [32]: 83% | viability, T/C [33]: 95.5% | viability, T/C [34]: 80.9% | viability, T/C [35]: 87.1% | viability, T/C [36]: 37.6%

CC1COCCN1c1cc(-c2ccnn2C)c2ccnc(-c3ccn[nH]3)c2n1 (stereo unspecified) + Cc1[nH]c2ccc(F)cc2c1-c1nc2c3cccnc3c3ncccc3c2[nH]1
pIC50 (second compound 0.0316 µM): 6.54 | pIC50 (second compound 0.1 µM): 6.57 | pIC50 (second compound 0.316 µM): 6.59 | pIC50 (second compound 1 µM): 6.87 | pIC50 (second compound 3.16 µM): 7.25 | pIC50 (second compound 10 µM): 7.16 | viability, T/C [1]: 86.8% | viability, T/C [2]: 63.2% | viability, T/C [3]: 47.6% | viability, T/C [4]: 42% | viability, T/C [5]: 29.8% | viability, T/C [6]: 27.2% | viability, T/C [7]: 91.9% | viability, T/C [8]: 63.6% | viability, T/C [9]: 53.3% | viability, T/C [10]: 30.3% | viability, T/C [11]: 34.9% | viability, T/C [12]: 30.4% | viability, T/C [13]: 78.5% | viability, T/C [14]: 75.5% | viability, T/C [15]: 44.7% | viability, T/C [16]: 28.5% | viability, T/C [17]: 28.5% | viability, T/C [18]: 30.1% | viability, T/C [19]: 68.5% | viability, T/C [20]: 54.5% | viability, T/C [21]: 37.5% | viability, T/C [22]: 31.8% | viability, T/C [23]: 31.4% | viability, T/C [24]: 29.7% | viability, T/C [25]: 57.8% | viability, T/C [26]: 41.7% | viability, T/C [27]: 34.2% | viability, T/C [28]: 31% | viability, T/C [29]: 25.5% | viability, T/C [30]: 27.1% | viability, T/C [31]: 57.9% | viability, T/C [32]: 47.5% | viability, T/C [33]: 35.4% | viability, T/C [34]: 29.6% | viability, T/C [35]: 27.3% | viability, T/C [36]: 20.7%
